Test results taken from patent US7279565B2, “Molecular regulatory circuits to achieve sustained activation of genes of interest by a single stress” (priority 1998, dated 2007).

Legend:
Format in all cases: cell-based
[1] = target: T1, transcription factor GLP65 (Homo sapiens, UniProt P06401); assay: Molecular circuit Hsp70/GAL4-GLP65 + GAL4-hGH in co-transfected HeLa cells, hGH ELISA; details: 10 nM mifepristone with or without heat treatment 43-44° C. for 30-60 min, assayed two or three days later, FIG. 6C
T1 construct: expressed in transfected cells; host or cells: human HeLa cells, transient co-transfection
T1 sequence (P06401 679-913 limits assumed): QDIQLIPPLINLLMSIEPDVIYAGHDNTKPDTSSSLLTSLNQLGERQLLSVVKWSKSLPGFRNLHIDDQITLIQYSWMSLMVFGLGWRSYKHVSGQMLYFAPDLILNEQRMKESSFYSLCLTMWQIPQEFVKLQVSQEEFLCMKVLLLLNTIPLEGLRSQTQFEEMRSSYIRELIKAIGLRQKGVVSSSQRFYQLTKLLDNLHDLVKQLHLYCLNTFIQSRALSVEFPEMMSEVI
Experimental: (§1) To test the molecular circuits outlined in FIG. 6A, human HeLa cells were co-transfected with appropriate amounts of Hsp70/GAL4-GLP65 and GAL4-fLuc or GAL4-hGH using Lipofectamine™ reagent (Life Technologies). For correction of differences in transfection efficiency, a small amount of pRL-CMV expressing a Renilla luciferase was also included in transfection mixtures. One day after transfection, cultures were either left untreated, were administered 10 nM mifepristone, were heat-treated (43-44° C. for 30-60 min), or were administered mifepristone and subjected to heat treatment. Two or three days later, cells were harvested and assayed for firefly luciferase activity using the Dual Luciferase Reporter Assay System (Promega Corp.) or for hGH activity using an ELISA kit distributed by Roche, respectively.

[2] = target: T1, transcription factor GLP65; assay: Molecular circuit Hsp70/GAL4-GLP65 + GAL4-fLuc in co-transfected HeLa cells, firefly luciferase assay; details: 10 nM mifepristone with or without heat treatment 43-44° C. for 30-60 min, assayed two or three days later, FIG. 6B
Experimental: as §1

[3] = target: T2, transcription factor GLP65 (Homo sapiens, UniProt P06401+Q04206); assay: Stable HeLa-CAT line with genomic GAL4-fLuc and Hsp70/GAL4-GLP65-RKC transactivator, firefly luciferase assay; details: stable HeLa-CAT clonal line; mifepristone and/or heat treatment at 43° C.; assayed one day later; FIG. 7
T2 construct: expressed in transfected cells
T2 sequence (P06401+Q04206 fused): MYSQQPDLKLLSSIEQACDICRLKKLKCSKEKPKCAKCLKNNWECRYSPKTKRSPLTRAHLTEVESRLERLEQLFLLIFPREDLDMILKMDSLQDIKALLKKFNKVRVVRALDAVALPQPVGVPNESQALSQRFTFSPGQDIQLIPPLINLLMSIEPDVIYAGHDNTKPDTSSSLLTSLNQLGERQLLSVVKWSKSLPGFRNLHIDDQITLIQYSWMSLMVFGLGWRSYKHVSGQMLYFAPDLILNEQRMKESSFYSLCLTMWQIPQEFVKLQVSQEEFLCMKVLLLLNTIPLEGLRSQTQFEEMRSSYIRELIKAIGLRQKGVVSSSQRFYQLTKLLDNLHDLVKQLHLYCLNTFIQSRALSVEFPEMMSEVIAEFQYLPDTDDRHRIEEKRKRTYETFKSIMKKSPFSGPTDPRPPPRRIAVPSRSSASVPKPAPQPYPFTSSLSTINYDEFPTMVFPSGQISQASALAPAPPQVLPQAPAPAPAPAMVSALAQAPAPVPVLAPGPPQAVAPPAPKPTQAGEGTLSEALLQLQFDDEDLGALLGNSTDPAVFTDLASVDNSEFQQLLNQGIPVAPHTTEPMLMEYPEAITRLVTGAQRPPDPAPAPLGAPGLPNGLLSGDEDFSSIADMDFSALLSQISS
Experimental: HeLa-CAT cells were cotransfected with GAL4-fLuc and Hsp70/GAL4-GLP65-RKC-neo (4:1 molar ratio), and transformants were selected using 400 μg/ml G418. Clonal lines were isolated. […] In the experiment shown in the Figure, parallel cultures of the cell line were either left untreated, or were heat-treated at 43° C. for the times indicated, exposed to mifepristone at the concentrations indicated, or both heat-treated and provided mifepristone. One day later, cells were harvested and assayed for firefly luciferase activity. […] Note that relative firefly luciferase activities are presented as fractions of the highest activity in the experiment.

EcR/RXR = assay: Firefly luciferase reporter assay of the Hsp70/E/GRE combination promoter in transfected EcR-293 cells; details: EcR-293 cells transfected with Hsp70/E/GRE-fLuc; ponasterone A for 1-2 days
Experimental: To test the Hsp70/E/GRE combination promoter and compare it with the hsp70B and E/GRE promoters, EcR-293 cells were co-transfected using Lipofectamine™ reagent (Life Technologies) with Hsp70/E/GRE-fLuc, Hsp70-fLuc or E/GRE-fLuc and pRL-CMV containing a constitutively expressed Renilla luciferase gene. One day after transfection, parallel cultures were either left untreated or were subjected to a heat treatment at 43-44° C. for 30 min or to ponasterone A (Invitrogen Corp.) for 1-2 days. Cells were harvested (after ponasterone exposure or 6-7 h after heat treatment), and firefly luciferase activities were determined using the Dual Luciferase Reporter System (Promega Corp.). […] EcR-293 cells expressing activatable EcR/RXR were obtained from Invitrogen Corporation and were cultured according to the manufacturer's instructions.

Compound	expression of hGH gene (relative hGH activity) [1]	expression of fLuc gene (relative firefly luciferase activity) [2]	firefly luciferase activity of genomic luciferase gene [3]	firefly luciferase activity (induction of the Hsp70/E/GRE combination promoter) (EcR/RXR)
CC#C[C@]1(O)CC[C@H]2[C@@H]3CCC4=CC(=O)CCC4=C3[C@@H](c3ccc(N(C)C)cc3)C[C@@]21C [mifepristone]	essentially silent, except when the cells containing the respective gene switches were stressed (heat treatment) as well as were administered mifepristone	essentially silent, except when the cells containing the respective gene switches were stressed (heat treatment) as well as were administered mifepristone	Elevated levels of luciferase activity were only measured in cells that were both administered mifepristone and had been subjected to heat treatment	
CC(C)CC[C@@H](O)[C@](C)(O)[C@H]1CC[C@@]2(O)C3=CC(=O)[C@@H]4C[C@@H](O)[C@@H](O)C[C@]4(C)[C@H]3CC[C@]12C [ponasterone A]				strongly inducible by heat and ponasterone A
